± gives the uncertainty stated by the source.
Assay: xn = mol fraction of the nth substance listed
Conditions: for viscosity: 100 kPa; for electrical conductivity: 101 kPa

CC[n+]1ccccc1.N#C[N-]C#N + CCCO
viscosity (288.15 K, x2 = 0.1095): 20.5 ± 2.1 mPa·s | viscosity (288.15 K, x2 = 0.1947): 17.6 ± 1.8 mPa·s | viscosity (288.15 K, x2 = 0.8012): 4.59 ± 0.46 mPa·s | viscosity (293.15 K, x2 = 0): 22.1 ± 2.2 mPa·s | viscosity (293.15 K, x2 = 0.3011): 13.3 ± 1.3 mPa·s | viscosity (293.15 K, x2 = 0.8012): 4.05 ± 0.41 mPa·s | viscosity (298.15 K, x2 = 0.5008): 7.45 ± 0.75 mPa·s | viscosity (298.15 K, x2 = 0.9): 2.77 ± 0.28 mPa·s | viscosity (303.15 K, x2 = 0.4029): 8.04 ± 0.81 mPa·s | viscosity (303.15 K, x2 = 0.702): 4.19 ± 0.42 mPa·s | viscosity (308.15 K, x2 = 0.1947): 9.87 ± 0.99 mPa·s | viscosity (308.15 K, x2 = 0.5008): 5.9 ± 0.59 mPa·s | viscosity (308.15 K, x2 = 0.8012): 2.92 ± 0.29 mPa·s | viscosity (308.15 K, x2 = 0.9): 2.24 ± 0.22 mPa·s | viscosity (313.15 K, x2 = 0.1947): 8.76 ± 0.88 mPa·s | viscosity (313.15 K, x2 = 0.5008): 5.31 ± 0.53 mPa·s | viscosity (318.15 K, x2 = 0): 11 ± 1.1 mPa·s | viscosity (318.15 K, x2 = 0.5008): 4.8 ± 0.48 mPa·s | viscosity (318.15 K, x2 = 0.702): 3.12 ± 0.31 mPa·s | viscosity (318.15 K, x2 = 0.9): 1.84 ± 0.18 mPa·s

CCCCCCC[n+]1ccn(C)c1.O=S(=O)([N-]S(=O)(=O)C(F)(F)F)C(F)(F)F + O
viscosity (308.15 K, x2 = 0.1971): 34.86 ± 0.31 mPa·s | viscosity (318.15 K, x2 = 0.1971): 24.33 ± 0.21 mPa·s | viscosity (323.15 K, x2 = 0.1971): 20.69 ± 0.18 mPa·s | viscosity (358.15 K, x2 = 0.1971): 8.4 ± 0.07 mPa·s

O=P([O-])([O-])[O-].[Na+].[Na+].[Na+] + CCCCCCCCCCCC[N+](C)(C)C.[Br-] + O
electrical conductivity (298.15 K, x2 = 0, x1 = 0.0001802): 0.411 ± 0.0008 S/m | electrical conductivity (298.15 K, x2 = 0, x1 = 0.001799): 2.052 ± 0.004 S/m | electrical conductivity (298.15 K, x2 = 5.23e-06, x1 = 0.0001802): 0.411 ± 0.0008 S/m | electrical conductivity (298.15 K, x2 = 7.86e-06, x1 = 0.001799): 2.048 ± 0.004 S/m | electrical conductivity (298.15 K, x2 = 1.209e-05, x1 = 0.0001802): 0.4123 ± 0.0008 S/m | electrical conductivity (298.15 K, x2 = 1.591e-05, x1 = 0.001799): 2.047 ± 0.004 S/m | electrical conductivity (298.15 K, x2 = 1.895e-05, x1 = 0.0001802): 0.4139 ± 0.0008 S/m | electrical conductivity (298.15 K, x2 = 2.633e-05, x1 = 0.001799): 2.047 ± 0.004 S/m | electrical conductivity (298.15 K, x2 = 2.887e-05, x1 = 0.0001802): 0.4171 ± 0.0008 S/m | electrical conductivity (298.15 K, x2 = 3.573e-05, x1 = 0.0001802): 0.4194 ± 0.0008 S/m | electrical conductivity (298.15 K, x2 = 3.912e-05, x1 = 0.001799): 2.048 ± 0.004 S/m | electrical conductivity (298.15 K, x2 = 4.223e-05, x1 = 0.0001802): 0.4213 ± 0.0008 S/m | electrical conductivity (298.15 K, x2 = 4.89e-05, x1 = 0.0001802): 0.4235 ± 0.0008 S/m | electrical conductivity (298.15 K, x2 = 5.21e-05, x1 = 0.001799): 2.049 ± 0.004 S/m | electrical conductivity (298.15 K, x2 = 5.756e-05, x1 = 0.0001802): 0.4261 ± 0.0009 S/m | electrical conductivity (298.15 K, x2 = 6.605e-05, x1 = 0.0001802): 0.429 ± 0.0009 S/m | electrical conductivity (298.15 K, x2 = 6.673e-05, x1 = 0.001799): 2.051 ± 0.004 S/m | electrical conductivity (298.15 K, x2 = 7.416e-05, x1 = 0.0001801): 0.4318 ± 0.0009 S/m | electrical conductivity (298.15 K, x2 = 8.172e-05, x1 = 0.001799): 2.054 ± 0.004 S/m | electrical conductivity (298.15 K, x2 = 8.246e-05, x1 = 0.0001801): 0.4346 ± 0.0009 S/m | electrical conductivity (298.15 K, x2 = 9.058e-05, x1 = 0.0001801): 0.4375 ± 0.0009 S/m | electrical conductivity (298.15 K, x2 = 9.852e-05, x1 = 0.0001801): 0.4405 ± 0.0009 S/m | electrical conductivity (298.15 K, x2 = 9.872e-05, x1 = 0.001799): 2.059 ± 0.004 S/m | electrical conductivity (298.15 K, x2 = 0.000107, x1 = 0.0001801): 0.444 ± 0.0009 S/m | electrical conductivity (298.15 K, x2 = 0.0001133, x1 = 0.001799): 2.063 ± 0.004 S/m | electrical conductivity (298.15 K, x2 = 0.0001155, x1 = 0.0001801): 0.4477 ± 0.0009 S/m | electrical conductivity (298.15 K, x2 = 0.0001247, x1 = 0.0001801): 0.4515 ± 0.0009 S/m | electrical conductivity (298.15 K, x2 = 0.0001301, x1 = 0.001799): 2.067 ± 0.004 S/m | electrical conductivity (298.15 K, x2 = 0.0001324, x1 = 0.0001801): 0.4544 ± 0.0009 S/m | electrical conductivity (298.15 K, x2 = 0.0001404, x1 = 0.0001801): 0.4573 ± 0.0009 S/m | electrical conductivity (298.15 K, x2 = 0.000147, x1 = 0.001798): 2.07 ± 0.01 S/m | electrical conductivity (298.15 K, x2 = 0.000148, x1 = 0.0001801): 0.4602 ± 0.0009 S/m | electrical conductivity (298.15 K, x2 = 0.0001566, x1 = 0.0001801): 0.4633 ± 0.0009 S/m | electrical conductivity (298.15 K, x2 = 0.0001632, x1 = 0.001798): 2.074 ± 0.004 S/m | electrical conductivity (298.15 K, x2 = 0.0001658, x1 = 0.0001801): 0.4669 ± 0.0009 S/m | electrical conductivity (298.15 K, x2 = 0.000175, x1 = 0.0001801): 0.4702 ± 0.0009 S/m | electrical conductivity (298.15 K, x2 = 0.0001791, x1 = 0.001798): 2.078 ± 0.004 S/m | electrical conductivity (298.15 K, x2 = 0.0001842, x1 = 0.0001801): 0.4735 ± 0.0009 S/m | electrical conductivity (298.15 K, x2 = 0.0001934, x1 = 0.0001801): 0.4766 ± 0.001 S/m | electrical conductivity (298.15 K, x2 = 0.0001954, x1 = 0.001798): 2.081 ± 0.004 S/m | electrical conductivity (298.15 K, x2 = 0.0002026, x1 = 0.0001801): 0.4791 ± 0.001 S/m | electrical conductivity (298.15 K, x2 = 0.0002111, x1 = 0.001798): 2.083 ± 0.004 S/m | electrical conductivity (298.15 K, x2 = 0.0002116, x1 = 0.0001801): 0.481 ± 0.001 S/m | electrical conductivity (298.15 K, x2 = 0.0002205, x1 = 0.0001801): 0.4824 ± 0.001 S/m | electrical conductivity (298.15 K, x2 = 0.0002268, x1 = 0.001798): 2.086 ± 0.004 S/m | electrical conductivity (298.15 K, x2 = 0.0002327, x1 = 0.0001801): 0.4842 ± 0.001 S/m | electrical conductivity (298.15 K, x2 = 0.0002427, x1 = 0.001798): 2.089 ± 0.004 S/m | electrical conductivity (298.15 K, x2 = 0.0002436, x1 = 0.0001801): 0.4857 ± 0.001 S/m | electrical conductivity (298.15 K, x2 = 0.0002524, x1 = 0.0001801): 0.4866 ± 0.001 S/m | electrical conductivity (298.15 K, x2 = 0.0002579, x1 = 0.001798): 2.091 ± 0.004 S/m | electrical conductivity (298.15 K, x2 = 0.0002612, x1 = 0.0001801): 0.4876 ± 0.001 S/m | electrical conductivity (298.15 K, x2 = 0.0002726, x1 = 0.0001801): 0.489 ± 0.001 S/m | electrical conductivity (298.15 K, x2 = 0.0002731, x1 = 0.001798): 2.094 ± 0.004 S/m | electrical conductivity (298.15 K, x2 = 0.0002851, x1 = 0.0001801): 0.4902 ± 0.001 S/m | electrical conductivity (298.15 K, x2 = 0.0002866, x1 = 0.001798): 2.096 ± 0.004 S/m | electrical conductivity (298.15 K, x2 = 0.0002984, x1 = 0.0001801): 0.4919 ± 0.001 S/m | electrical conductivity (298.15 K, x2 = 0.0003017, x1 = 0.001798): 2.099 ± 0.004 S/m | electrical conductivity (298.15 K, x2 = 0.0003094, x1 = 0.0001801): 0.4931 ± 0.001 S/m | electrical conductivity (298.15 K, x2 = 0.0003171, x1 = 0.001798): 2.101 ± 0.004 S/m | electrical conductivity (298.15 K, x2 = 0.0003315, x1 = 0.001798): 2.103 ± 0.004 S/m | electrical conductivity (298.15 K, x2 = 0.0003393, x1 = 0.0001801): 0.4959 ± 0.001 S/m | electrical conductivity (298.15 K, x2 = 0.0003465, x1 = 0.001798): 2.105 ± 0.004 S/m | electrical conductivity (298.15 K, x2 = 0.0003608, x1 = 0.001798): 2.108 ± 0.004 S/m | electrical conductivity (298.15 K, x2 = 0.0003754, x1 = 0.001798): 2.11 ± 0.01 S/m | electrical conductivity (298.15 K, x2 = 0.0003895, x1 = 0.001798): 2.112 ± 0.004 S/m | electrical conductivity (298.15 K, x2 = 0.000403, x1 = 0.001798): 2.114 ± 0.004 S/m | electrical conductivity (298.15 K, x2 = 0.0004205, x1 = 0.001798): 2.117 ± 0.004 S/m
